Read-outs that look alike come from different tables or passages of the source.
Columns and labels:
T cells = test: T cell viability after pre-incubation with CHOP components; type: cell-based
[1] = test system: relapsed/refractory (R/R) B-NHL; test: epcoritamab monotherapy clinical trial (NCT03625037); type: in vivo
From the text: Epcoritamab as monotherapy is currently in a clinical trial for the treatment of relapsed/refractory (R/R) B-NHL (ClinicalTrials.gov Identifier: NCT03625037).

[2] = test system: CD20-expressing Raji-luc tumor cells; details: even in the presence of an excess of IgG1-RTX-FEAR; Engelberts et al. 2020; cited from earlier work
[3] = test system: primary DLBCL and follicular lymphoma patient biopsies; details: cited from earlier work
CD20 = molecular target: T1, CD20 (Homo sapiens, UniProt P11836); details: bind to a different epitope; cited from earlier work
T1 sequence (P11836 1-297): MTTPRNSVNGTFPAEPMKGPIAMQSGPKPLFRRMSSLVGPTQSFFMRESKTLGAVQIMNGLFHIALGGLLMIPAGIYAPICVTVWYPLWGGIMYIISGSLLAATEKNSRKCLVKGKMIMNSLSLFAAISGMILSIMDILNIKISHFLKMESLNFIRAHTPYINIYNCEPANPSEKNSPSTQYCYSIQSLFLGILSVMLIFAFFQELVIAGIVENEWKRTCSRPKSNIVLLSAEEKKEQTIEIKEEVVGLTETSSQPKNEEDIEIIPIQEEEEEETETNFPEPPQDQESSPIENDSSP

[4] = test system: previously untreated, high-risk (IPI or R-IPI≥3) DLBCL; test: Phase 1b open-label trial of epcoritamab in combination with R-CHOP; type: in vivo, human; details: as of Sep. 8, 2021; CRS under epcoritamab + R-CHOP
Description: Epcoritamab is initially be administered in combination with R-CHOP in a 3-subject cohort. DLTs are evaluated during the first 28 days.
Cyclophosphamide (750 mg/m^2) is administered intravenously on day 1 once every three weeks (Q3 W) of cycles 1-6 or 1-8. Doxorubicin (50 mg/m^2) is administered intravenously on day 1 once every three weeks (Q3 W) of cycles 1-6 or 1-8. Vincristine (1.4 mg/m^2, with a recommended cap of 2 mg) is administered intravenously on day 1 once every three weeks (Q3 W) of cycles 1-6 or 1-8. Prednisone (100 mg/day) is administered intravenously or orally on five consecutive days (days 1-5) every three weeks (Q3 W) of cycles 1-6 or 1-8.
MRD negativity rate, is defined as the proportion of subjects with at least 1 undetectable MRD result according to the specific threshold, prior to initiation of subsequent therapy.

[5] = T cells pre-incubated 16 hours, data not shown

C[C@]12C=CC(=O)C=C1CC[C@@H]1[C@@H]2C(=O)C[C@@]2(C)[C@H]1CC[C@]2(O)C(=O)CO [prednisone, 17,21-dihydroxypregna-1,4-diene-3,11,20-trione]
T cell viability after pretreatment (T cells; [5]): did not impact T cell viability

epcoritamab: IgG1 bispecific CD3xCD20 antibody; heavy and light chain pairs SEQ ID NOs: 24/25 (CD3ε arm) and 26/27 (CD20 arm); CAS 2134641-34-0
tolerated dose ([1]; human, in vivo): at least 48 mg | dose-limiting toxicities ([1]; monotherapy, R/R B-NHL patients, preliminary data): no dose-limiting toxicities reported | tumor growth [2]: effectively reduce tumor growth | T-cell-mediated cytotoxicity ([3]; biopsies taken a certain amount of time after anti-CD20 antibody, Van der Horst et al. 2019): induced T-cell-mediated cytotoxicity | tumor cell kill ([3]; biopsy taken 2 weeks after administering anti-CD20 antibody): up to 40%

CC[C@]1(O)C[C@H]2CN(CCc3c([nH]c4ccccc34)[C@@](C(=O)OC)(c3cc4c(cc3OC)N(C=O)[C@H]3[C@@](O)(C(=O)OC)[C@H](OC(C)=O)[C@]5(CC)C=CCN6CC[C@]43[C@@H]65)C2)C1 [vincristine]
T cell viability after pretreatment (T cells; [5]): did not impact T cell viability

O=P1(N(CCCl)CCCl)NCCCO1 (centres unmarked) [cyclophosphamide, 2H-1,3,2-Oxazaphosphorin-2-amine, N,N-bis(2-chloroethyl)tetrahydro-, 2-oxide]
T cell viability after pretreatment (T cells): did not impact T cell viability

IgG1-CD20: anti-CD20 antibody of which the CD20 arm of epcoritamab is derived
competition for CD20 binding (CD20): compete for CD20 binding

tocilizumab: a humanized antibody against IL-6 receptor, commercially available as, e.g., ACTEMRA
outcome of the Grade 3 CRS episode after treatment [4]: recovered

COc1cccc2c1C(=O)c1c(O)c3c(c(O)c1C2=O)C[C@@](O)(C(=O)CO)C[C@@H]3O[C@H]1C[C@H](N)[C@H](O)[C@H](C)O1 [doxorubicin]
T cell viability after pretreatment (T cells; [5]): led to a reduction in T cell viability

Source: patent US20240034812A1, “BISPECIFIC ANTIBODY AGAINST CD3 AND CD20 IN COMBINATION THERAPY FOR TREATING DIFFUSE LARGE B-CELL LYMPHOMA” (GENMAB A/S, priority 2020, published 2024)
